Measurements reported in ChEMBL document CHEMBL4043226, “Design, synthesis and biological evaluation of benzamide and phenyltetrazole derivatives with amide and urea linkers as BCRP inhibitors” (Bioorg Med Chem Lett, 2017).

Legend:
NCI-H460 = experiment: Cytotoxicity against human H460 cells after 72 hrs by MTT assay; type: cell-based; details: NCI-H460, 72 h
[1] = Resistance index, ratio of mitoxantrone IC50 for human H460/MX20 cells to mitoxantrone IC50 for human H460 cells at 3 uM (reference value: 28.66)
[2] = Cytotoxicity against human NCI-H460/MX20 cells after 72 hrs by MTT assay; type: cell-based; details: NCI-H460/MX20, 72 h
[3] = biological target: T1, Broad substrate specificity ATP-binding cassette transporter ABCG2 (Homo sapiens, UniProt Q9UNQ0); experiment: Inhibition of BCRP (unknown origin) expressed in MCF-7 MX cells assessed as reduction in Hoechst 33342 accumulation preincubated for 30 mins followed by Hoechst 33342 addition measured every 60 secs up to 120 mins by fluorescence assay; type: cell-based
T1 sequence (Q9UNQ0 whole entry): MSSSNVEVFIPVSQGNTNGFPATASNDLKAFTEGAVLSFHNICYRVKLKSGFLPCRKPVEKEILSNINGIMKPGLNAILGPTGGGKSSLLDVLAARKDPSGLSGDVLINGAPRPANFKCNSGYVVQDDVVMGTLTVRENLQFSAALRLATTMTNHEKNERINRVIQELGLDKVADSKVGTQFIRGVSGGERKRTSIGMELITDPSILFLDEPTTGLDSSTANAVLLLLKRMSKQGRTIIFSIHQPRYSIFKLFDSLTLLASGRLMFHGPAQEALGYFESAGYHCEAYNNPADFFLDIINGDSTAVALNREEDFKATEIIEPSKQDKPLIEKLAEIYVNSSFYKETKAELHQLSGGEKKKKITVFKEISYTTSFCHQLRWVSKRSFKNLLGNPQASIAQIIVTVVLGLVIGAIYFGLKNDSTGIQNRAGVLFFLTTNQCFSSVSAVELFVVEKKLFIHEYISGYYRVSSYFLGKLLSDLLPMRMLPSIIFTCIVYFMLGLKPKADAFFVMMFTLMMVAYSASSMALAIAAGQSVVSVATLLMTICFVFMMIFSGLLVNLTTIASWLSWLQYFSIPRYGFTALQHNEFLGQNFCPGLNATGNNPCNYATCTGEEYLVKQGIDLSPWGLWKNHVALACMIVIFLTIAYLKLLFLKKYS

[4] = Resistance index, ratio of mitoxantrone IC50 for human H460/MX20 cells to mitoxantrone IC50 for human H460 cells at 10 uM (reference value: 28.66)
[5] = Resistance index, ratio of mitoxantrone IC50 for human H460/MX20 cells to mitoxantrone IC50 for human H460 cells at 1 uM (reference value: 28.66)
[6] = biological target: T1, Broad substrate specificity ATP-binding cassette transporter ABCG2; experiment: Inhibition of ABCG2 (unknown origin) expressed in high five insect cell membrane vesicles assessed as reduction in BCRP ATPase activity at 3 to 30 uM preincubated for 3 mins followed by ATP addition measured for 20 mins
ABCG2 (BCRP) = biological target: T2, ABCG2 (BCRP) (Homo sapiens, UniProt Q9UNQ0); experiment: Activation of ABCG2 (unknown origin) expressed in high five insect cell membrane vesicles assessed as induction of basal BCRP ATPase activity at 10 uM preincubated for 3 mins followed by ATP addition measured for 20 mins relative to control; details: High Five insect cell membrane vesicles expressing ABCG2, read-out: FC
T2 sequence (Q9UNQ0 whole entry): T1 sequence (Q9UNQ0 whole entry)

[7] = biological target: T1, Broad substrate specificity ATP-binding cassette transporter ABCG2; experiment: Inhibition of ABCG2 (unknown origin) expressed in high five insect cell membrane vesicles assessed as reduction in BCRP ATPase activity up to 3 uM preincubated for 3 mins followed by ATP addition measured for 20 mins
[8] = Inhibition of ABCG2 in human H460/MX20 cells assessed as potentiation of mitoxantrone induced antiproliferative activity by measuring mitoxantrone IC50 at 10 uM preincubated for 2 hrs followed by mitoxantrone addition measured after 72 hrs by MTT assay (reference value: 6.161 +/- 0.172 microM)

Structure (SMILES)	IC50 (NCI-H460)	Ratio IC50 [1]	IC50 [2]	IC50 [3]	Ratio IC50 [4]	Ratio IC50 [5]	inhibition (INH) [6]	fold induction at 20 min, 10 µM (ABCG2 (BCRP))	inhibition (INH) [7]	IC50 [8]
CCCc1ccc(NC(=O)c2ccccc2NC(=O)c2ccc([N+](=O)[O-])cc2)cc1	> 100 µM	3.64	> 100 µM	0.94 µM	2.76	3.87				
CCCc1ccc(NC(=O)c2ccccc2NC(=O)Nc2ccc([N+](=O)[O-])cc2)cc1	> 100 µM	2.24	> 100 µM		1.51	2.89	Active	1.47	Not Active	0.325 µM
